PMC12203311, “Design, synthesis, in silico and in vitro evaluation of pyrrole–indole hybrids as dual tubulin and aromatase inhibitors with potent anticancer activities” (RSC Advances, 2025)
Where two headings read alike, the source gives them in different places.

Legend:
porcine brain tubulin = target: T1, porcine brain tubulin (Sus scrofa, UniProt P02550+P02554); test: Tubulin polymerisation assay (fluorescence-based); type: biochemical; settings: 10 µM, 37 °C
T1 construct: a solution containing porcine brain tubulin (2 mg mL^−1); purchased Cytoskeleton BK011P; host or cells: porcine brain (tissue-purified)
T1 sequence (P02554 whole entry): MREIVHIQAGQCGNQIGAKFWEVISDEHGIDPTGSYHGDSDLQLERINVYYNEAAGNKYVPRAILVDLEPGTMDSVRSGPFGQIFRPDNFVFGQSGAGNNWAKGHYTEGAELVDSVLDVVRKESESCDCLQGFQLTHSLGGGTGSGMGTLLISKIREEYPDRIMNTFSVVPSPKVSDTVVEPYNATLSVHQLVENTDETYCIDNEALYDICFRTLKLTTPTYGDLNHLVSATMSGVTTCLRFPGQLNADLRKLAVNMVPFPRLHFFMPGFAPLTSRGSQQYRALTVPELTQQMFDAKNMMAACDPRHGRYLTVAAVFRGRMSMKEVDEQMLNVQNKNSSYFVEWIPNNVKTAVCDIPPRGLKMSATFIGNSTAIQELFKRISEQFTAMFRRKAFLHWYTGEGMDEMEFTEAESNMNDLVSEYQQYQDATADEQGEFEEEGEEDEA
T1 sequence (P02550 whole entry): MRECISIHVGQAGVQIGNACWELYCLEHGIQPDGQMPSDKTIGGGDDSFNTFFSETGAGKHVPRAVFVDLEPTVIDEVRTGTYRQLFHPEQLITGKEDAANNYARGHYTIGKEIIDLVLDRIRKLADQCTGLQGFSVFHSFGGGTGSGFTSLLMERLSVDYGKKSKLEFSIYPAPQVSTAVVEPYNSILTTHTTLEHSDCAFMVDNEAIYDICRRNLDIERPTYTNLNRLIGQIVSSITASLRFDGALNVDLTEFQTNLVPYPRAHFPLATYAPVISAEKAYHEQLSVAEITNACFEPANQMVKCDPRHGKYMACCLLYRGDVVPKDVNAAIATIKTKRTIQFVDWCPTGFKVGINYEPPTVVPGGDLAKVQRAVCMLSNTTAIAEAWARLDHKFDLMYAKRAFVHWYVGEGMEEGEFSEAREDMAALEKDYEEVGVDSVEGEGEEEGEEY
Experimental: The tubulin polymerisation experimental protocol followed the method described in this literature.[28] The experimental was using fluorescence-based assay kit (Cytoskeleton, catalog no. BK011P). In Brief, 5 µL of test compounds was added to a 96-well plate, then mix with 50 µL of a solution containing porcine brain tubulin (2 mg mL^−1) in buffer with 20% glycerol and 1 mM GTP. A microplate reader (Varioskan™ LUX multimode microplate reader, Thermo Scientific™) was used to measure fluorescence intensity every 60 seconds for 60 minutes, with excitation at 360 nm and emission at 450 nm, maintained at 37 °C throughout the experiment.

IGROV1 = test: NCI60 five-dose screen; type: cell-based; settings: Homo sapiens, IGROV-1; IGROV1, ovarian cancer
COLO 205 = test: NCI60 five-dose screen; type: cell-based, human; settings: Homo sapiens; for CC50: COLO 205, COLO 205, colon cancer, read-out: LC50 (the source's name); for GI50: COLO 205, colon cancer
EKVX = test: NCI60 five-dose screen; type: cell-based; settings: Homo sapiens, NSC lung cancer; for CC50: read-out: LC50 (the source's name)
MDA-MB-435 = test: NCI60 five-dose screen; type: cell-based, human; settings: Homo sapiens; for CC50: MDA-MB-435, MDA-MB-435, melanoma, read-out: LC50 (the source's name); for GI50: MDA-MB-435, melanoma
SK-MEL-2 = test: NCI60 five-dose screen; type: cell-based; settings: Homo sapiens, SK-MEL-2, melanoma; for CC50: read-out: LC50 (the source's name)
SR = test: NCI60 five-dose screen; type: cell-based; settings: Homo sapiens, leukemia; for CC50: read-out: LC50 (the source's name)
RXF 393 = test: NCI60 five-dose screen; type: cell-based; settings: Homo sapiens, RXF 393, renal cancer; for CC50: read-out: LC50 (the source's name)
UACC-62 = test: NCI60 five-dose screen; type: cell-based; settings: Homo sapiens, UACC-62, melanoma; for CC50: read-out: LC50 (the source's name)
M14 = test: NCI60 five-dose screen; type: cell-based; settings: Homo sapiens, M14, melanoma; for CC50: read-out: LC50 (the source's name)
NCI-H23 = test: NCI60 five-dose screen; type: cell-based; settings: Homo sapiens, NCI-H23, NSC lung cancer; for CC50: read-out: LC50 (the source's name)
MCF7 = test: NCI60 five-dose screen; type: cell-based; settings: Homo sapiens, MCF7, breast cancer; for CC50: read-out: LC50 (the source's name)
786-0 = test: NCI60 five-dose screen; type: cell-based; settings: Homo sapiens, 786-0, renal cancer; for CC50: read-out: LC50 (the source's name)
SK-MEL-5 = test: NCI60 five-dose screen; type: cell-based, human; settings: for CC50: read-out: LC50 (the source's name)
[1] = system: NCI60 human cancer cell line panel; test: NCI60 five-dose screen, ranges over the panel; type: cell-based; settings: for GI50: five-dose experiment, all cell lines, read-out: GI50 values (range over the panel)
[2] = Homo sapiens, SK-MEL-5, SK-MEL-5, melanoma
[3] = Homo sapiens, SK-MEL-5, melanoma

SMILES | GI50 (IGROV1) [µM] | CC50 (COLO 205) [µM] | GI50 (COLO 205) [µM] | GI50 (EKVX) [µM] | CC50 (EKVX) [µM] | GI50 (MDA-MB-435) [µM] | GI50 (SK-MEL-2) [µM] | CC50 (SK-MEL-2) [µM] | GI50 (RXF 393) [µM] | CC50 (RXF 393) [µM] | GI50 (UACC-62) [µM] | CC50 (UACC-62) [µM] | GI50 (M14) [µM] | CC50 (M14) [µM] | GI50 (NCI-H23) [µM] | CC50 (NCI-H23) [µM] | GI50 (MCF7) [µM] | CC50 (MCF7) [µM] | GI50 (786-0) [µM] | CC50 (786-0) [µM] | also measured
CCc1cc[nH]c1/C=N/NC(=O)c1[nH]c2ccc(Br)cc2c1-c1ccccc1 [Derivative 3u, (E)-5-Bromo-N′-((3-ethyl-1H-pyrrol-2-yl)methylene)-3-phenyl-1H-indole-2-carbohydrazide] | 3.52 | 41.3 | 2.96 | 2.79 | 37.7 | 4.12 | 6.77 | 45.8 | 1.19 | 18.7 | 2.48 | 30.8 | 1.62 | 23.7 | 2.66 | 38.3 | 2.63 | 37.5 | 3.51 | 44.3 | tubulin inhibition (porcine brain tubulin): weak tubulin inhibitors; LC50 (concentration causing 50% net cell kill) (IGROV1): 44 µM; CC50 (MDA-MB-435): 41.6 µM; GI50 (SR): 2.02 µM; CC50 (SR): > 100 µM; CC50 (SK-MEL-5; [2]): 27.2 µM; GI50 (SK-MEL-5; [3]): 2.54 µM
O=C(N/N=C/c1ccc([N+](=O)[O-])[nH]1)c1[nH]c2ccc(Br)cc2c1-c1ccccc1 [Derivative 3p, (E)-5-Bromo-N′-((5-nitro-1H-pyrrol-2-yl)methylene)-3-phenyl-1H-indole-2-carbohydrazide] | 1.48 | 8.08 | 1.52 | 5.37 | 45.7 | 0.253 | 2.18 | 36.5 | 0.411 | 41.2 | 0.451 | 40.9 | 0.652 | 37 | 1.45 | 35.4 | 0.394 | 39 | 0.803 | 41.4 | RFU in tubulin polymerization assay (porcine brain tubulin): ~50 arbitrary units; CC50 (MDA-MB-435): 29.8 µM; GI50 (SR): 0.354 µM; CC50 (SR): > 100 µM; CC50 (SK-MEL-5; [2]): 8.69 µM; GI50 (SK-MEL-5; [3]): 1.02 µM
Cc1cc(C)c(/C=N/NC(=O)c2[nH]c3ccc(Br)cc3c2-c2ccccc2)[nH]1 [Derivative 3c, (E)-5-Bromo-N′-((3,5-dimethyl-1H-pyrrol-2-yl)methylene)-3-phenyl-1H-2-carbohydrazide] | 2.47 | 52.3 | 3.25 | 3.24 | 35.4 | 2.84 | 3.37 | 41.7 | 2.26 | 35 | 2.36 | 32.4 | 4.45 | 49.9 | 2.59 | 35.2 | 2.3 | 37.2 | 5.19 | 63.9 | GI50 [1]: 1.77 to 8.25 µM; CC50 (MDA-MB-435): 34 µM; CC50 (SK-MEL-5; [2]): 19.3 µM; GI50 (SK-MEL-5; [3]): 2.52 µM; CC50 (SK-MEL-5; SK-MEL-5, melanoma): 28.8 µM
O=C(N/N=C/c1cc(Cl)c[nH]1)c1[nH]c2ccc(Br)cc2c1-c1ccccc1 [Derivative 3h, (E)-5-Bromo-N′-((4-chloro-1H-pyrrol-2-yl)methylene)-3-phenyl-1H-indole-2-carbohydrazide] | 0.538 | 1.88 | 0.251 | 1.28 | > 100 | 0.185 | 0.26 | 47.9 | 0.219 | 34.3 | 0.559 | 66.3 | 0.305 | 50.3 | 0.317 | 36.5 | 0.309 | 53.5 | 0.459 | 39.8 | CC50 ([1]; HL-60 (TB), K-562, SR, NCI-H460, COLO 205, HCC-2998, HT29, SK-MEL-5, OVCAR-8, read-out: LC50 values (range over named cell lines)): 0.8 to 7.2 µM; RFU in tubulin polymerization assay (porcine brain tubulin): ~40 arbitrary units; GI50 (SR): 0.179 µM; CC50 (SR): 4.6 µM; CC50 (SK-MEL-5; [2]): 3.08 µM; GI50 (SK-MEL-5; [3]): 0.228 µM
O=C(N/N=C/c1cc(Br)c(Br)[nH]1)c1[nH]c2ccc(Br)cc2c1-c1ccccc1 [Derivative 3f, (E)-5-Bromo-N′-((4,5-dibromo-1H-pyrrol-2-yl)methylene)-3-phenyl-1H-indole-2-carbohydrazide] | 0.53 | 48.8 | 3.36 | 3.45 | 44.8 | 1.01 | 2.68 | 36.3 | 1.55 | 34.3 | 1.2 | 38 | 2.81 | 66.1 | 2.62 | 34 | 1.99 | 33.7 | 4.91 | 64.1 | GI50 [1]: 0.53 to 6.8 µM; CC50 (MDA-MB-435): 19.6 µM; CC50 (SK-MEL-5; [2]): 8.65 µM; GI50 (SK-MEL-5; [3]): 1.72 µM
CCc1ccc(/C=N/NC(=O)c2[nH]c3ccc(Br)cc3c2-c2ccccc2)[nH]1 [Derivative 3s, (E)-5-Bromo-N′-((5-ethyl-1H-pyrrol-2-yl)methylene)-3-phenyl-1H-indole-2-carbohydrazide] | 0.612 | 26.1 | 0.316 | 0.453 | 43 | 0.227 | 0.647 | 45.9 | 0.194 | 28.9 | 0.381 | 38.1 | 0.318 | 38.7 | 0.484 | 42.6 | 0.369 | 45.9 | 0.801 | 47.4 | RFU in tubulin polymerization assay (porcine brain tubulin): ~55 arbitrary units; LC50 (concentration causing 50% net cell kill) (IGROV1): 43.3 µM; CC50 (MDA-MB-435): 34 µM; GI50 (SR): 0.419 µM; CC50 (SR): > 100 µM; CC50 (SK-MEL-5; [2]): 10.1 µM; GI50 (SK-MEL-5; [3]): 0.381 µM
